{"source": "patent US20260062447A1", "about": "“COMPOUNDS” (UNIVERSITY OF SOUTHAMPTON, priority 2022, published 2026)", "key": {"[1]": {"tested_on": "HIF-1a driven transcription in Panc HRE readout cell line", "assay": "Panc HRE readout cell line (EYFP expression)", "assay_type": "cell-based"}, "[2]": {"assay": "Cytotox-Glo toxicity assay", "assay_type": "cell-based", "settings": "doses 50 uM"}, "[3]": {"biological_target": "T1, His-HIF-1α PAS-B domain with FLAG-HIF-1β PAS-B domain (Homo sapiens, UniProt Q16665)", "T1 construct": "heterodimerization of His-HIF-1α PAS-B domain with FLAG-HIF-1β PAS-B domain analysed by ELISA", "T1 sequence (Q16665 238-349 limits assumed)": "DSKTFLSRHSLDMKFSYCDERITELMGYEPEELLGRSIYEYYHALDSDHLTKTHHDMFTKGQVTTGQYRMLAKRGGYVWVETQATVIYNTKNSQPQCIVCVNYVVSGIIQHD", "assay": "ELISA of HIF-1α PAS-B / HIF-1β PAS-B heterodimerization", "assay_type": "biochemical", "settings": "read-out: IC50 of disruption of HIF-1α-HIF-1β PAS-B-PAS-B dimer formation", "experimental": "FIG. 9‥Effects of (CONC) CK-n-leu-F(CF3)IF(Br) [SEQ ID NO: 40 Cys lys NL phe(CF3) ile phe(Br)] on the heterodimerization of His-HIF-1α PAS-B domain with FLAG-HIF-1β PAS-B domain analysed by ELISA.\nThe ability of CK-n-leu-F(CF3)IF(Br) to disrupt the HIF-1α-HIF-1β PAS-B-PAS-B PPI was then assessed via an ELISA assay.\nTo each well of a clear Pierce nickel coated 96-well plate (Thermo Scientific), purified Hiss-HIF-1α PAS-B protein in HIP buffer was added (25 μL, 0.1 μM), the plate was then incubated for 1 hr at RT with rocking. The wells were then washed 2× with HIF buffer (150 μL) and 1× with PBS Tween (0.05% Tween 20, 150 μL). 2% milk in PBS Tween (150 μL) was then added to each well and incubated for 1 hr at RT with rocking as a blocking step. The wells were then washed 2×PBS Tween (150 μL) and 1× with HIF buffer (150 μL). For HIF-B dimerisation a serial dilution of HIF-1β PAS-B ranging from 250 μM to 11 nM in HIF buffer (100 μL) was then added. […] The plate was then incubated at RT for 1 hr with rocking. The wells were then washed 2× with HIF buffer (150 μL) and 1× with PBS Tween (150 μL), A 1:1000 dilution of mouse anti-flag antibody in 2% milk PBS Tween (50 μL) was then added to each well and the plate incubated for a further hour at RT with rocking. […] H2SO4(aq) (2 M, 100 μL) was then added to each well and the absorbance at 450 nm determined on a BMG Clariostar plate reader."}, "[4]": {"tested_on": "HIF-1 three-domain protein binding to FAM-HRE", "assay": "Fluorescence polarization assay of HIF-1 binding to FAM-HRE", "assay_type": "biochemical", "settings": "for IC50: FP assay, read-out: IC50 of inhibition of HIF DNA (FAM-HRE) binding", "experimental": "(§1) HIF-1 three-domain protein was thawed on ice and diluted to 150 nM in HIF FP buffer. Compounds for analysis were serially diluted in DMSO to give 10× stocks. The compounds (10 μL, 100% DMSO) were then added to the protein (80 μL). The samples were then incubated at room temperature for 30 minutes. FAM-HRE (10 μL, 20 nM) was then added and the samples loaded into a 384 well solid black non-binding microplate (Corning, USA). The fluorescence polarization of each well was then measured using gain and focus settings optimized by the used software set to a signal of 400 mP on a control well.\nAn FP assay utilizing a FAM labelled HRE was used and CK-NL-F(CF3)IF(Br) assessed.\nas §1, with “compounds (10 μl, 100% DMSO)” for “compounds (10 μL, 100% DMSO)”"}, "[5]": {"biological_target": "HIF-1α PAS-B domain (Homo sapiens, UniProt Q16665)", "sequence (Q16665 238-349 limits assumed)": "as above", "assay": "Microscale thermophoresis (MST) binding to HIF-1α PAS-B domain", "settings": "for binding affinity by MST, in words: compared within the derivative series or to the unsubstituted peptide"}, "[6]": {"tested_on": "HIF-1a driven transcription in U2OS HRE readout cell line", "assay": "U2OS HRE readout assay (EYFP expression)", "assay_type": "cell-based"}, "[7]": {"tested_on": "HeLa cells", "assay": "Cell internalization of the fluorescent peptide, PMT detection at 405 nm", "assay_type": "cell-based", "source_text": "(§2) FIG. 11—A) Structure of cyclic peptide that incorporates a coumaryl motif at the phenylalanine position CLL-Cou-VY [SEQ ID NO: 39 Cys leu leu cou val tyr]. B) MST analysis of CLL-Cou-VY. C) The peptide was seen to be internalized in HeLa cells upon visualization with PMT detection at 405 nm. […] E) HIF-1α immunofluorescence under control conditions showing that without treatment HIF-1a localizes to the nucleus.\nWe therefore made a peptide with a coumaryl motif incorporated at the phenylalanine position the compound, CLL-Cou-VY, shown in FIG. 11 was seen to be internalized in HeLa cells upon visualization with PMT detection at 405 nm."}, "[8]": {"tested_on": "HIF-1α nuclear localization", "assay": "HIF-1α immunofluorescence (nuclear localization)", "assay_type": "cell-based", "source_text": "as §2"}, "[9]": {"biological_target": "T2, HIF-1α PAS-B domain mutant C337A (Homo sapiens, UniProt Q16665, C337A)", "T2 construct": "made in house", "T2 sequence (Q16665 238-349 C337A limits assumed)": "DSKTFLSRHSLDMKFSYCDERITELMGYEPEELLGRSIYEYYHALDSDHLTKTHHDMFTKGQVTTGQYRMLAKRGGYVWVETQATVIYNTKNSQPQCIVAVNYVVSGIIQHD", "assay": "MST binding to cysteine mutant HIF-1α PAS-B C337A", "settings": "site-directed mutagenesis", "experimental": "(§3) One rationalization would be that the peptide binding is disulphide-mediated. Whilst this was thought to be unlikely as all assays were performed in the presence of the reducing agent TCEP, it was decided that the possibility would be further investigated via site-directed mutagenesis (SDM). The three cysteine residues within the HIF-1α PAS-B domain were sequentially mutated to alanine. The affinity of cyclo-CLLFVY for the resultant mutant proteins C255A, C344A and C337A was then assessed by MST.\n(§4) An aliquot of labelled HIF-1α PAS-B was thawed on ice and diluted to 50 nM with HIF MST assay buffer, before being centrifuged at 12,000 rpm for 15 minutes. The compound was then serially diluted in DMSO to give 10× stocks. These were then diluted 1:5 in HIF MST assay buffer to give 2× stocks, before finally being mixed 1:1 (v/v) with the labelled protein to give a final concertation of 25 nM protein and a final DMSO content of 10%. Samples were loaded into NanoTemper® Monolith NT.115 premium treated capillaries and measurements were carried out using a Monolith NT.115 system at 25° C. using 50% MST power and 50% LED power. Data was analysed by NanoTemper® analysis software. Binding curves were fitted using GraphPad Prism 8 software."}, "[10]": {"biological_target": "T3, HIF-1α PAS-B domain mutant C255A (Homo sapiens, UniProt Q16665, C255A)", "T3 construct": "made in house", "T3 sequence (Q16665 238-349 C255A limits assumed)": "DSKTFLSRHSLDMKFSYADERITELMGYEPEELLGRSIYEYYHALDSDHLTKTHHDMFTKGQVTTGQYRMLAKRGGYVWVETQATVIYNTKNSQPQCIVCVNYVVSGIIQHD", "assay": "MST binding to cysteine mutant HIF-1α PAS-B C255A", "settings": "site-directed mutagenesis", "experimental": "as §3, §4"}, "[11]": {"tested_on": "HIF-1α PAS-B domain mutant C344A", "assay": "MST binding to cysteine mutant HIF-1α PAS-B C344A", "settings": "site-directed mutagenesis", "experimental": "as §3, §4"}}, "note": "Where a SMILES comes first, the peptide text is derived from it. [ ]: non-standard residue; d: D form. Phe(4-CF3) = N[C@@H](Cc1ccc(C(F)(F)F)cc1)C(=O)O; Phe(4-Br) = N[C@@H](Cc1ccc(Br)cc1)C(=O)O; Nle = CCCC[C@H](N)C(=O)O", "data": [{"smiles": "CCCC[C@@H]1NC(=O)[C@H](CCCCN)NC(=O)[C@H](CS)NC(=O)[C@H](Cc2ccc(Br)cc2)NC(=O)[C@H]([C@@H](C)CC)NC(=O)[C@H](Cc2ccc(C(F)(F)F)cc2)NC1=O", "note": "[CK-n-leu-F(CF3)IF(Br), Cys lys n-leu phe(CF3) ile phe(4-Br)] (cyclo(CK[Nle][Phe(4-CF3)]I[Phe(4-Br)]))", "values": [{"measurement": "expression of EYFP", "setting": "[1]", "result": "inhibited the expression of EYFP"}, {"measurement": "toxicity", "setting": "[2]", "result": "not toxic"}, {"measurement": "IC50", "setting": "[3]", "result": "27.7 ± 14", "unit": "µM"}, {"measurement": "compatibility with FP assay / direct binding to FAM-HRE", "setting": "[4]; peptide itself with FAM labelled HRE", "result": "bind to the FAM-HRE directly"}, {"measurement": "Kd", "setting": "[5]; MST, HIF-1α PAS-B domain", "result": "1.66 ± 0.3", "unit": "µM"}]}, {"smiles": "CCCC[C@@H]1NC(=O)[C@H](CC(C)C)NC(=O)[C@H](CS)NC(=O)[C@H](Cc2ccc(Br)cc2)NC(=O)[C@H]([C@@H](C)CC)NC(=O)[C@H](Cc2ccc(O)cc2)NC1=O", "note": "[CL-n-leu-F(CF3)IF(Br), Cys leu n-leu phe(CF3) ile phe(4-Br)] (cyclo(CL[Nle]YI[Phe(4-Br)]))", "values": [{"measurement": "expression of EYFP", "setting": "[6]", "result": "inhibited the expression of EYFP"}]}, {"smiles": "CC(C)C[C@@H]1NC(=O)[C@H](CS)NC(=O)[C@H](Cc2ccc(O)cc2)NC(=O)[C@H](C(C)C)NC(=O)[C@H](CCc2cc(=O)oc3cc(O)ccc23)NC(=O)[C@H](CC(C)C)NC1=O", "note": "[CLL-Cou-VY, Cys Leu Leu Cou Val Tyr]", "values": [{"measurement": "internalization in cells", "setting": "[7]", "result": "internalized"}, {"measurement": "effect on HIF-1α nuclear localization", "setting": "[8]", "result": "preventing HIF-1α nuclear localization"}]}, {"smiles": "CC(C)C[C@@H]1NC(=O)[C@H](CS)NC(=O)[C@H](Cc2ccc(Br)cc2)NC(=O)[C@H](C(C)C)NC(=O)[C@H](Cc2ccc(C(F)(F)F)cc2)NC(=O)[C@H](CC(C)C)NC1=O", "note": "[CLLF(CF3)IF(Br), Cys leu leu phe(CF3) ile phe(4-Br)]", "values": [{"measurement": "IC50", "setting": "[4]", "result": "11.8 ± 1.1", "unit": "µM"}, {"measurement": "binding affinity by MST, in words", "setting": "[5]", "result": "best affinity"}]}, {"smiles": "CC(C)C[C@@H]1NC(=O)[C@H](CS)NC(=O)[C@H](Cc2ccc(O)cc2)NC(=O)[C@H](C(C)C)NC(=O)[C@H](Cc2ccccc2)NC(=O)[C@H](CC(C)C)NC1=O", "note": "[CLLFVY, Cys leu leu phe val tyr]", "values": [{"measurement": "binding activity for mutant protein C337A", "setting": "[9]", "result": "binding activity is retained"}, {"measurement": "binding activity for mutant protein C255A", "setting": "[10]", "result": "binding activity is retained"}, {"measurement": "binding activity for mutant protein C344A", "setting": "[11]", "result": "binding activity is retained"}, {"measurement": "IC50", "setting": "[4]", "result": "76.5 ± 8", "unit": "µM"}]}, {"smiles": "CC(C)C[C@@H]1NC(=O)[C@H](CC(C)C)NC(=O)[C@@H](CS)NC(=O)[C@H](Cc2ccc(O)cc2)NC(=O)[C@H](C(C)C)NC(=O)[C@H](Cc2ccccc2)NC1=O", "note": "[D-cysteine, d-cys leu leu phe val tyr]", "values": [{"measurement": "binding affinity by MST, in words", "setting": "[5]", "result": "comparable affinities"}]}, {"smiles": "CC(C)C[C@@H]1NC(=O)[C@H](CS)NC(=O)[C@H](Cc2ccc(O)cc2)NC(=O)[C@H](C(C)C)NC(=O)[C@H](Cc2ccc3ccccc3c2)NC(=O)[C@H](CC(C)C)NC1=O", "note": "[Nal, Cys leu leu Nal val tyr]", "values": [{"measurement": "fold improvement in affinity compared to the parent peptide CLLFVY", "setting": "[5]; MST Kd relative to CLLFVY", "result": 6, "unit": "fold"}]}, {"smiles": "NC(CCS)C(=O)O", "note": "(centres unmarked) [homocysteine, h-cys leu leu phe val tyr]", "values": [{"measurement": "binding affinity by MST, in words", "setting": "[5]", "result": "comparable affinities"}]}]}
